Values quoted from earlier work in patent US8298564B2, “Two part antimicrobial boot” (Medtronic, Inc., priority 2006, dated 2012).

Key:
[1] = not given; remark: listed apart in the source

SMILES	degradation with ethylene oxide sterilization (ethylene oxide sterilization)	degradation under steam sterilization [1]	degradation or loss in antimicrobial activity of rifampin-containing devices treated with ethylene oxide (devices containing rifampin treated with ethylene oxide, reported by numerous studies)	degradation on ethylene oxide sterilization, as discovered in U.S. patent application Ser. No. 11/535,762 (ethylene oxide sterilization)
CN(C)c1ccc(O)c2c1C[C@H]1C[C@H]3[C@H](N(C)C)C(O)=C(C(N)=O)C(=O)[C@@]3(O)C(O)=C1C2=O [minocycline]	does not appear to substantially degrade	degrades to unacceptable levels	–	–
CO[C@H]1/C=C/O[C@@]2(C)Oc3c(C)c(O)c4c(O)c(c(/C=N/N5CCN(C)CC5)c(O)c4c3C2=O)NC(=O)/C(C)=C\C=C\[C@H](C)[C@H](O)[C@@H](C)[C@@H](O)[C@@H](C)[C@H](OC(C)=O)[C@@H]1C [rifampin]	–	fairly stable	no detectable degradation or no loss in antimicrobial activity	substantial degradation
